This note sets out measurements from publication PMC4113732, “Novel Preclinical and Radiopharmaceutical Aspects of [^68Ga]Ga-PSMA-HBED-CC: A New PET Tracer for Imaging of Prostate Cancer” (Pharmaceuticals, 2014).

The assay addresses T1, prostate-specific membrane antigen (PSMA) (Homo sapiens, UniProt Q04609).
T1 construct: gene FOLH1
Kind of assay: competitive radioligand binding on intact PSMA-expressing LNCaP cells against [^[…]]Ga-PSMA-HBED-CC. In kind it is cell-based.

T1 sequence (Q04609 whole entry): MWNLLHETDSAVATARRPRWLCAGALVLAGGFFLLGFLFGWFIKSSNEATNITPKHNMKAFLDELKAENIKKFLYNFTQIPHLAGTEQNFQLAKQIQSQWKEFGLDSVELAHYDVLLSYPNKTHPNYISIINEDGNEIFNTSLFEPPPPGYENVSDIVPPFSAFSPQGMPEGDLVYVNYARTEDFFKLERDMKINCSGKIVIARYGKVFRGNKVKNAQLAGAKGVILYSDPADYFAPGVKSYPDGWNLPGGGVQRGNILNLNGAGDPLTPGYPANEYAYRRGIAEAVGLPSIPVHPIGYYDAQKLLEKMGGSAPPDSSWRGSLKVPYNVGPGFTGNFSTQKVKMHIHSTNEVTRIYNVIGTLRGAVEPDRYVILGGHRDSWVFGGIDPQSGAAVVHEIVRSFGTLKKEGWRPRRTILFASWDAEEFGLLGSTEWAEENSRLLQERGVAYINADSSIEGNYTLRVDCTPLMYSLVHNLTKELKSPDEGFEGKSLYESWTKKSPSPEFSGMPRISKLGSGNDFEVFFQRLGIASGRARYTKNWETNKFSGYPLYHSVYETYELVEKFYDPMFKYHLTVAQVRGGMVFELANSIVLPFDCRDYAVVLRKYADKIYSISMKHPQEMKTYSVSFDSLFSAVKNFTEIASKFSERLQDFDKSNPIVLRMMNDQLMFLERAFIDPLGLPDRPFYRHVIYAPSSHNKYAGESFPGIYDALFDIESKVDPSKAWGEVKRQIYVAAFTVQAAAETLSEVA

Usually IC50 stands for the midpoint of a concentration-inhibition curve. Molecule `O=C(O)CCc1ccc2c(c1)CN1CCN(CC(=O)O)Cc3cc(CCC(=O)NCCCCCC(=O)NCCCC[C@H](NC(=O)N[C@@H](CCC(=O)O)C(=O)O)C(=O)O)ccc3[O][Ga]([O]C(=O)C1)[O]2` [[^natGa]Ga-PSMA-HBED-CC] gave an IC50 of 24.8 ± 1.2 nM.
